Measurements reported in paper PMC4791274, “Cerdulatinib, a novel dual SYK/JAK kinase inhibitor, has broad anti-tumor activity in both ABC and GCB types of diffuse large B cell lymphoma” (Oncotarget, 2015).
pIC50: −log10 of the molar value.

Key:
MST1 = settings: biochemical assay; cited from earlier work
DLBCL cell lines = experiment: annexin V / 7-AAD cell viability by flow cytometry; format: cell-based; settings: all tested cell lines with the exception of LY18; up to 72 h; concentration- and time-dependent
Method: (§1) DLBCL cell lines were treated with various concentrations of cerdulatinib for up to 72 h. The metabolic activities of cells were determined with MTT assay according to manufacturer's instruction (Roche Applied Science, Indianapolis, IN) at 72 h time point. IC50 was calculated using the Sigma Plot generated with GraphPad Prism 6 software (GraphPad, La Jolla, CA). Cell growth was measured at every 24 h counting live cells with flow cytometry as previously described. Cells were collected every 24 h and cell viability was determined by the PE Annexin V Apoptosis Detection Kit I (BD Biosciences).

JAK2 [1] = settings: cited from earlier work
p-STAT3, p-AKT and p-ERK = experiment: phospho-flow assay in anti-BCR stimulated primary DLBCL cells; format: cell-based, human; settings: 0.5 μM or 1 μM, 6 h, then IgM/IgG 15 min, six primary DLBCL samples
Method: GCB cell lines OCI-LY1, OCI-LY4, OCI-LY8, OCI-LY18, SUDHL6 and VAL were cultured in Iscove's Modified Dulbecco's Medium (IMDM) supplemented with 20% Fetal Bovine Serum (FBS) and 100 μg/mL penicillin/streptomycin. ABC cell lines SUDHL2 and HBL1 were cultured in RPMI1640 supplemented with 20% FBS and 100 μg/mL penicillin/streptomycin. OCI-LY3 cells were grown in RPMI1640 supplemented with 20% FBS, 100 μg/ml penicillin/streptomycin and HEPES. ABC cell lines OCI-LY10 was cultured in Iscove's Modified Dulbecco's Medium (IMDM) supplemented with 20% human serum and 100 μg/mL penicillin/streptomycin. ABC cell line U2932 was cultured in high glucose RPMI1640 supplemented with 20% FBS, 100 μg/ml penicillin/streptomycin. All cells were maintained in a humidified 37°C/5% CO2 incubator. Frozen primary DLBCL cells were obtained from the tumor bank of the Department of Pathology at Weill Cornell Medical College after Institutional Review Board review and approval. All primary cells were thawed as previously described and cultured in above conditions at 37°C for 6 h in the presence or absence of cerdulatinib followed by BCR stimulations with 5 μg/mL of IgM and IgG. The clinical characteristics of these patients are listed in the Supplemental Table 1. Cerdulatinib was kindly provided by Portola Pharmaceuticals Inc. (South San Francisco, CA) and stored as 10 mM stock at −20°C. […]

FLT4 = settings: biochemical assay; cited from earlier work
[2] = tested on: LY10 (OCI-LY10) ABC DLBCL cell line; experiment: MTT assay (cellular metabolic activity), 72 h; format: cell-based; settings: LY10, 72 h
Method: as §1

VAL GCB DLBCL cell line = experiment: MTT assay (cellular metabolic activity), 72 h; format: cell-based
Method: as §1

HBL1 ABC DLBCL cell line = experiment: MTT assay (cellular metabolic activity), 72 h; format: cell-based; settings: HBL1, 72 h
Method: as §1

[3] = tested on: LY18 (OCI-LY18) GCB DLBCL cell line; experiment: MTT assay (cellular metabolic activity), 72 h; format: cell-based; settings: Homo sapiens, OCI-Ly18, 72 h
Method: as §1

[4] = tested on: LY1 (OCI-LY1) GCB DLBCL cell line; experiment: MTT assay (cellular metabolic activity), 72 h; format: cell-based; settings: Homo sapiens, OCI-Ly1, 72 h
Method: as §1

[5] = tested on: U2932 ABC DLBCL cell line; experiment: MTT assay (cellular metabolic activity), 72 h; format: cell-based; settings: Homo sapiens, U2932, 72 h
Method: as §1

[6] = tested on: SUDHL2 ABC DLBCL cell line; experiment: MTT assay (cellular metabolic activity), 72 h; format: cell-based; settings: Homo sapiens, SU-DHL-2; SUDHL2, 72 h
Method: as §1

[7] = tested on: LY4 (OCI-LY4) GCB DLBCL cell line; experiment: MTT assay (cellular metabolic activity), 72 h; format: cell-based; settings: LY4, 72 h
Method: as §1

[8] = tested on: SUDHL6 GCB DLBCL cell line; experiment: MTT assay (cellular metabolic activity), 72 h; format: cell-based; settings: Homo sapiens, SU-DHL-6; SUDHL6, 72 h
Method: as §1

JAK2 [9] = settings: biochemical assay; cited from earlier work
[10] = tested on: splenomegaly induced by chronic BCR stimulation; settings: mice; cited from earlier work
[11] = tested on: panel of DLBCL cell lines; experiment: MTT assay, whole panel; format: cell-based; settings: all eleven DLBCL cell lines, 72 h
Method: as §1

SYK = settings: biochemical assay; cited from earlier work
[12] = tested on: primary human DLBCL samples; experiment: MTT viability of primary DLBCL samples; format: cell-based; settings: 0.5 μM and 1 μM, 72 h, six primary samples
Method: GCB cell lines OCI-LY1, OCI-LY4, OCI-LY8, OCI-LY18, SUDHL6 and VAL were cultured in Iscove's Modified Dulbecco's Medium (IMDM) supplemented with 20% Fetal Bovine Serum (FBS) and 100 μg/mL penicillin/streptomycin. ABC cell lines SUDHL2 and HBL1 were cultured in RPMI1640 supplemented with 20% FBS and 100 μg/mL penicillin/streptomycin. OCI-LY3 cells were grown in RPMI1640 supplemented with 20% FBS, 100 μg/ml penicillin/streptomycin and HEPES. ABC cell lines OCI-LY10 was cultured in Iscove's Modified Dulbecco's Medium (IMDM) supplemented with 20% human serum and 100 μg/mL penicillin/streptomycin. ABC cell line U2932 was cultured in high glucose RPMI1640 supplemented with 20% FBS, 100 μg/ml penicillin/streptomycin. All cells were maintained in a humidified 37°C/5% CO2 incubator. […]
as §1

ARK5 = settings: biochemical assay; cited from earlier work
JNK3 = settings: biochemical assay; cited from earlier work

For CCS(=O)(=O)N1CCN(c2ccc(Nc3ncc(C(N)=O)c(NC4CC4)n3)cc2)CC1 [cerdulatinib], the IC50 (MST1) is listed as 4 nM, the “cell viability (annexin V-/7-AAD-)” value (DLBCL cell lines) is listed as “reduced” and the “cellular activity against JAK2” value (JAK2 [1]) is listed as “lacking cellular activity”. For the same molecule, the “p-STAT3, p-AKT and p-ERK levels” value (p-STAT3, p-AKT and p-ERK) was “marked and simultaneous down-regulation”, the IC50 (FLT4) was 51 nM and the pIC50 [2] was 6.54. It also gave a pIC50 (VAL GCB DLBCL cell line) of 6.89, a pIC50 (HBL1 ABC DLBCL cell line) of 6.27 and a pIC50 [3] of 6.80. For the same molecule, the pIC50 [4] was 6.57, the pIC50 [5] was 5.74 and the pIC50 [6] was 6.01. For the same molecule, the pIC50 [7] was 5.68, the pIC50 [8] was 7.00 and the IC50 (JAK2 [9]) was 6 nM. For the same molecule, the splenomegaly [10] was “alleviates splenomegaly”, the pIC50 [11] was at least 5.70 and the IC50 (SYK) was 32 nM. The “response of primary DLBCL cells (viability, MTT)” value [12] was “responded to cerdulatinib in a concentration-dependent manner”, the IC50 (ARK5) was 4 nM and the IC50 (JNK3) was 18 nM.
